Values after ≈ are worked out from the molar mass of the structure shown.
Assays:
Type in all cases: functional
Streptococcus pneumoniae [1] = assay: Antibacterial activity against erythromycin-resistant Streptococcus pneumoniae AB11 harboring harboring mef and erm gene after 24 h by NCCLS broth microdilution method; settings: AB11, 24 h
Streptococcus pneumoniae [2] = assay: Antibacterial activity against erythromycin-resistant Streptococcus pneumoniae A22072 harboring mef gene after 24 h by NCCLS broth microdilution method; settings: A22072, 24 h
Pseudomonas aeruginosa = assay: Antibacterial activity against penicillin-susceptible Pseudomonas aeruginosa ATCC 27853 after 24 h by NCCLS broth microdilution method; settings: ATCC 27853, 24 h
Bacillus subtilis = assay: Antibacterial activity against penicillin-susceptible Bacillus subtilis ATCC 9372 after 24 h by NCCLS broth microdilution method; settings: ATCC 9372, 24 h
Staphylococcus aureus [3] = assay: Antibacterial activity against […] Staphylococcus aureus ATCC 29213 after 24 h by NCCLS broth microdilution method; settings: ATCC 29213, 24 h
Streptococcus pneumoniae [4] = assay: Antibacterial activity against erythromycin-resistant Streptococcus pneumoniae B1 harboring erm gene after 24 h by NCCLS broth microdilution method; settings: B1, 24 h
Escherichia coli = assay: Antibacterial activity against penicillin-susceptible Escherichia coli ATCC 25922 after 24 h by NCCLS broth microdilution method; settings: ATCC 25922, 24 h
Staphylococcus aureus [5] = assay: Antibacterial activity against erythromycin-susceptible Staphylococcus aureus ATCC 25923 after 24 h by NCCLS broth microdilution method; settings: ATCC 25923, 24 h
Streptococcus pyogenes [6] = assay: Antibacterial activity against erythromycin-susceptible Streptococcus pyogenes after 24 h by NCCLS broth microdilution method
Streptococcus pyogenes [7] = assay: Antibacterial activity against erythromycin-resistant Streptococcus pyogenes R1 after 24 h by NCCLS broth microdilution method; settings: R1, 24 h

| SMILES | MIC (Streptococcus pneumoniae [1]) [µg/mL] | MIC (Streptococcus pneumoniae [2]) [µg/mL] | MIC (Pseudomonas aeruginosa) [µg/mL] | MIC (Bacillus subtilis) [µg/mL] | MIC (Staphylococcus aureus [3]) [µg/mL] | MIC (Streptococcus pneumoniae [4]) [µg/mL] | MIC (Escherichia coli) [µg/mL] | MIC (Staphylococcus aureus [5]) [µg/mL] | MIC (Streptococcus pyogenes [6]) [µg/mL] | MIC (Streptococcus pyogenes [7]) [µg/mL] |
| --- | --- | --- | --- | --- | --- | --- | --- | --- | --- | --- |
| CC[C@H]1OC(=O)[C@H](C)C(=O)[C@H](C)[C@@H](O[C@@H]2O[C@H](C)C[C@H](N(C)C)[C@H]2O)[C@](C)(OC)C[C@@H](C)C(=O)[C@H](C)[C@@H](OC(=O)NCCNC(=O)/C=C/c2ccc(O)cc2)[C@]1(C)O | 128 (≈ 156 µM) | 4 (≈ 4.88 µM) | 128 (≈ 156 µM) | 8 (≈ 9.76 µM) | 32 (≈ 39 µM) | 128 (≈ 156 µM) | > 128 | 32 (≈ 39 µM) | 4 (≈ 4.88 µM) | > 128 |
| CC[C@H]1OC(=O)[C@H](C)C(=O)[C@H](C)[C@@H](O[C@@H]2O[C@H](C)C[C@H](N(C)C)[C@H]2O)[C@](C)(OC)C[C@@H](C)C(=O)[C@H](C)[C@@H](OC(=O)NCCNC(=O)/C=C/c2ccc(F)cc2)[C@]1(C)O | 64 (≈ 77.9 µM) | 4 (≈ 4.87 µM) | > 128 | 8 (≈ 9.73 µM) | 128 (≈ 156 µM) | 128 (≈ 156 µM) | > 128 | 32 (≈ 38.9 µM) | 2 (≈ 2.43 µM) | > 128 |
| CC[C@H]1OC(=O)[C@H](C)C(=O)[C@H](C)[C@@H](O[C@@H]2O[C@H](C)C[C@H](N(C)C)[C@H]2O)[C@](C)(OC)C[C@@H](C)C(=O)[C@H](C)[C@@H](OC(=O)NCCNC(=O)/C=C/c2ccc(Br)cc2)[C@]1(C)O | 128 (≈ 145 µM) | 2 (≈ 2.27 µM) | > 128 | 4 (≈ 4.53 µM) | 64 (≈ 72.5 µM) | 128 (≈ 145 µM) | > 128 | 32 (≈ 36.2 µM) | 2 (≈ 2.27 µM) | > 128 |
| CC[C@H]1OC(=O)[C@H](C)C(=O)[C@H](C)[C@@H](O[C@@H]2O[C@H](C)C[C@H](N(C)C)[C@H]2O)[C@](C)(OC)C[C@@H](C)C(=O)[C@H](C)[C@@H](OC(=O)NCCNC(=O)c2ccc(C(C)(C)C)cc2)[C@]1(C)O | 128 (≈ 153 µM) | 4 (≈ 4.8 µM) | > 128 | 4 (≈ 4.8 µM) | 128 (≈ 153 µM) | 128 (≈ 153 µM) | > 128 | 128 (≈ 153 µM) | 16 (≈ 19.2 µM) | 128 (≈ 153 µM) |
| CC[C@H]1OC(=O)[C@H](C)C(=O)[C@H](C)[C@@H](O[C@@H]2O[C@H](C)C[C@H](N(C)C)[C@H]2O)[C@](C)(OC)C[C@@H](C)C(=O)[C@H](C)[C@@H](OC(=O)NCCNC(=O)/C=C/c2ccc([N+](=O)[O-])cc2)[C@]1(C)O | 128 (≈ 151 µM) | 1 (≈ 1.18 µM) | 128 (≈ 151 µM) | 4 (≈ 4.71 µM) | 128 (≈ 151 µM) | 128 (≈ 151 µM) | > 128 | 32 (≈ 37.7 µM) | 1 (≈ 1.18 µM) | > 128 |
| CC[C@H]1OC(=O)[C@H](C)C(=O)[C@H](C)[C@@H](O[C@@H]2O[C@H](C)C[C@H](N(C)C)[C@H]2O)[C@](C)(OC)C[C@@H](C)C(=O)[C@H](C)[C@@H](OC(=O)NCCNC(=O)/C=C/c2ccccc2)[C@]1(C)O | 64 (≈ 79.6 µM) | 4 (≈ 4.98 µM) | > 128 | 8 (≈ 9.95 µM) | 128 (≈ 159 µM) | 128 (≈ 159 µM) | > 128 | 32 (≈ 39.8 µM) | 4 (≈ 4.98 µM) | > 128 |
| CC[C@H]1OC(=O)[C@H](C)C(=O)[C@H](C)[C@@H](O[C@@H]2O[C@H](C)C[C@H](N(C)C)[C@H]2O)[C@](C)(OC)C[C@@H](C)C(=O)[C@H](C)[C@@H](OC(=O)NCCNC(=O)/C=C/c2ccc(Cl)cc2Cl)[C@]1(C)O | 128 (≈ 147 µM) | 2 (≈ 2.29 µM) | > 128 | 2 (≈ 2.29 µM) | 32 (≈ 36.7 µM) | 128 (≈ 147 µM) | 128 (≈ 147 µM) | 8 (≈ 9.17 µM) | 2 (≈ 2.29 µM) | 64 (≈ 73.3 µM) |
| CC[C@H]1OC(=O)[C@H](C)C(=O)[C@H](C)[C@@H](O[C@@H]2O[C@H](C)C[C@H](N(C)C)[C@H]2O)[C@](C)(OC)C[C@@H](C)C(=O)[C@H](C)[C@@H](OC(=O)NCCNC(=O)c2ccc(OC)cc2)[C@]1(C)O | 64 (≈ 79.2 µM) | 1 (≈ 1.24 µM) | > 128 | 4 (≈ 4.95 µM) | 128 (≈ 158 µM) | 128 (≈ 158 µM) | > 128 | 32 (≈ 39.6 µM) | 2 (≈ 2.48 µM) | > 128 |
| CC[C@H]1OC(=O)[C@H](C)C(=O)[C@H](C)[C@@H](O[C@@H]2O[C@H](C)C[C@H](N(C)C)[C@H]2O)[C@](C)(OC)C[C@@H](C)C(=O)[C@H](C)[C@@H](OC(=O)NCCNC(=O)c2cccc(C)c2)[C@]1(C)O | 64 (≈ 80.8 µM) | 8 (≈ 10.1 µM) | > 128 | 8 (≈ 10.1 µM) | 128 (≈ 162 µM) | 128 (≈ 162 µM) | > 128 | 32 (≈ 40.4 µM) | 4 (≈ 5.05 µM) | > 128 |
